One block for each compound: values may come before it.
Tests used:
[1] = test system: cultured hippocampal neurons; assay: Graf1c knockdown-induced dendritic spine loss in cultured hippocampal neurons; format: cell-based, mouse; details: 10 μM
Method: FIGS. 17A-17B illustrate the finding that Graf1 is a functional GTPase activating protein (GAP) in mature neurons and regulates dendritic spine formation. FIG. 17A: Representative fluorescence images of cultured hippocampal neurons. […] Scale bar, 10 μm. FIG. 17B: Quantification of dendritic spine density in the transfected neurons.
Next, it was evaluated whether RhoA activity is necessary for Pyk2-induced decrease in dendritic spine density. As described elsewhere herein, overexpression of GFP-Pyk2 induces loss of half of hippocampal neuron dendritic spines (FIGS. 10E-10F). […] Therefore, Pyk2 interacts with Graf1c within dendritic spines to allow increased RhoA-GTP levels and subsequent reduced synapse density.

[2] = test system: primary hippocampal neurons; assay: Dendritic spine motility in primary hippocampal neurons; format: cell-based, mouse
Text: FIG. 11A: Representative images of dendritic spine motility by standard deviation projection of time-lapse image. […] The standard deviation value for each pixel is shown by thermal color scale. […] FIG. 11B: Quantification of spine motility, expressed as % of changed area of spines with subtraction of changed area of dendritic shaft as background (changed area=(ΔAspine/Aspine×100)−(ΔAshaft/Ashaft×100)). […] Data are graphed as mean±SEM (n=7-8 coverslips from 3 different cultures). **p<0.01, ***p<0.001 by ANOVA, Tukey's multiple comparisons test.
FIG. 18A: Representative images of dendritic spine motility by standard deviation projection of time stacks. […] To display the spine motility in time-lapse images, the time stack images over 5 min of each conditions were projected to standard deviation using Image J and color coated with thermal color scale. […] FIG. 18B: Quantification of spine motility, expressed as % of changed area of spines with subtraction of dendritic shaft area change (changed area=(ΔAspine/Aspine×100)−(ΔAshaft/Ashaft×100)). Mean±SEM (n=5 coverslips).
Time-lapse images were acquired for 5 minutes with 10 second intervals in Tyrode's solution using 60× objective lens driven Volocity software. Time-lapse images (31 time frames over 5 min) were subjected to standard deviation (STD) projection to visualize spine motility in single image and colorized with thermal scale using ImageJ software (NIH). Quantitative measurements of spine motility by calculating the changed area at individual dendritic spines were conducted by using ImageJ software by an observer unaware of treatment group.

Pyk2 [3] = biological target: T1, Pyk2 (Homo sapiens, UniProt Q14289); assay: Pyk2 Ki of kinase inhibitors (CHEMBL & IUPHR-BPS database screen, Table 2); format: biochemical; details: Pyk2 versus Fyn
Pyk2 [4] = biological target: T1, Pyk2; details: read-out: Pyk2 Ki; cited from earlier work
APP/PS1 mice = details: cited from earlier work

T1 sequence (Q14289 whole entry, species assumed): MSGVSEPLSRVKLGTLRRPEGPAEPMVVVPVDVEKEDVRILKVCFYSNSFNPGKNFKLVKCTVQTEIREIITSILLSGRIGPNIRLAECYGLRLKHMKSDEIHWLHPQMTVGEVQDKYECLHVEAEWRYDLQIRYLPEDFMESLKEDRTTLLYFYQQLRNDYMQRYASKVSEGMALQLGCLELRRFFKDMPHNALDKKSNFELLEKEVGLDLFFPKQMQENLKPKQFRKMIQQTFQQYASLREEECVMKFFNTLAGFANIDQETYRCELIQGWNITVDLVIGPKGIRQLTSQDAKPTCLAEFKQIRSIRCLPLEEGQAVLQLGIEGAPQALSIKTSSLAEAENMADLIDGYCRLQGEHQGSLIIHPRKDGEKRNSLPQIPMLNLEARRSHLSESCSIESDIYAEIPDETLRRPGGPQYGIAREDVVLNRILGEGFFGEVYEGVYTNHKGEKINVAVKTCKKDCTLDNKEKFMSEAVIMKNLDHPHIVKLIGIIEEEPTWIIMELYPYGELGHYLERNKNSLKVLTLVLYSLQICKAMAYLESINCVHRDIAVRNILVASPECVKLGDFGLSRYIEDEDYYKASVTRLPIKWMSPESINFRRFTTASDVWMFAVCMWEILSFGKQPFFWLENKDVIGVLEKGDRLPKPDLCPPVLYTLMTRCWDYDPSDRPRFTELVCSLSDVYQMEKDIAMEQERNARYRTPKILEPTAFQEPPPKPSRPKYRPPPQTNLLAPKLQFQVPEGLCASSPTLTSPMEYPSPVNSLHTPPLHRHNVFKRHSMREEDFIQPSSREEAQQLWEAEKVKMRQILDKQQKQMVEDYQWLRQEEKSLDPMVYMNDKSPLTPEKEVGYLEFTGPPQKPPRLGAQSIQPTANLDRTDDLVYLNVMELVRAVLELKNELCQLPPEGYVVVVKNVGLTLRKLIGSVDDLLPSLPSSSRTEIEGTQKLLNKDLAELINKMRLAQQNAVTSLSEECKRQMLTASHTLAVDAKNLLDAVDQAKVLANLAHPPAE

SMILES: C[C@@H](N)[C@H]1CC[C@H](C(=O)Nc2ccncc2)CC1 [Compound Y27632]
Graf1c-knockdown-induced spine loss [1]: rescue Graf1c-knockdown-induced spine loss
Aβo-induced decrease in spine motility ([2]; Aβo 24 hours, PF-719 1 μM, Y27632 10 μM): rescue fully the Aβo-induced decrease in spine motility

SMILES: C[C@]12O[C@H](C[C@]1(O)CO)n1c3ccccc3c3c4c(c5c6ccccc6n2c5c31)CNC4=O [Lestaurtinib, (5S,6S,8R)-6-Hydroxy-6-(hydroxymethyl)-5-methyl-7,8,14,15-tetrahydro-5H-16-oxa-4b,8a,14-triaza-5,8-methanodibenzo[b,h]cycloocta[jkl]cyclopenta[e]-as-indacen-13(6H)-one]
Inhibition Character (Pyk2 [3]): dual Pyk2-Fyn

Inhibition Character (Pyk2 [3]): dual Pyk2-Fyn
SMILES: Cc1cc(N2CCOCC2)cc2nc(-c3c(NCC(O)c4cccc(Cl)c4)cc[nH]c3=O)[nH]c12 (centres unmarked) [Compound 5, 4-((2-(3-chlorophenyl)-2-hydroxyethyl)amino)-3-(7-methyl-5-morpholino-1H-benzo[d]imidazol-2-yl)pyridin-2(1H)-one]

SMILES: C=C1[C@@H](C)[C@H]2[C@H](Cc3ccccc3)NC(=O)[C@]23[C@H](OC(C)=O)/C=C/[C@@](C)(O)C(=O)[C@@H](C)C/C=C/[C@H]3[C@@H]1O [cytochalasin D]
spine motility (actin dependence) ([2]; 1 μm Cytochalasin D for 20 minutes, no Aβo): near complete cessation of spine motility

Inhibition Character (Pyk2 [3]): Fyn selective
SMILES: CN1CCN(CCOc2cc(OC3CCOCC3)c3c(Nc4c(Cl)ccc5c4OCO5)ncnc3c2)CC1 [AZD-0530, N-(5-chloro-1,3-benzodioxol-4-yl)-7-[2-(4-methyl-1-piperazinyl)ethoxy]-5-[(tetrahydro-2H-pyran-4-yl)oxy]-4-quinazolinamine]
Ki (Pyk2 [4]): > 1 µM
memory deficits and synapse loss in APP/PS1 mice (APP/PS1 mice; mouse, in vivo): rescuing memory deficits and synapse loss
activated p-Pyk2 level in transgenic mice (APP/PS1 mice; transgenic mice have a two-fold increase): reduces this level to that of WT mice

Inhibition Character (Pyk2 [3]): dual Pyk2-Fyn
SMILES: Cc1cnc(Nc2cccc(S(N)(=O)=O)c2)nc1Nc1ccc(OCC(N)=O)cc1 [Compound 8, 2-(4-((5-methyl-2-((3-sulfamoylphenyl)amino)pyrimidin-4-yl)amino)phenoxy)acetamide]

SMILES: Cn1cc(-c2cnc(N)c3c(-c4ccc(NC(=O)Nc5ccc(OC(F)F)cc5)cc4)csc23)cn1 [Compound 6, 1-(4-(4-amino-7-(1-methyl-1H-pyrazol-4-yl)thieno[3,2-c]pyridin-3-yl)phenyl)-3-(4-(difluoromethoxy)phenyl)urea]
Inhibition Character (Pyk2 [3]): dual Pyk2-Fyn
